{"source": "patent US9604975B2", "about": "“Indolyl-pyridone derivatives having checkpoint kinase 1 inhibitory activity” (Vernalis (R&D) Ltd., priority 2009, dated 2017)"}
{"molecular_target": "T1, CHK1 (Homo sapiens, UniProt O14757)", "T1 construct": "His; purchased Invitrogen", "T1 sequence (O14757 1-476)": "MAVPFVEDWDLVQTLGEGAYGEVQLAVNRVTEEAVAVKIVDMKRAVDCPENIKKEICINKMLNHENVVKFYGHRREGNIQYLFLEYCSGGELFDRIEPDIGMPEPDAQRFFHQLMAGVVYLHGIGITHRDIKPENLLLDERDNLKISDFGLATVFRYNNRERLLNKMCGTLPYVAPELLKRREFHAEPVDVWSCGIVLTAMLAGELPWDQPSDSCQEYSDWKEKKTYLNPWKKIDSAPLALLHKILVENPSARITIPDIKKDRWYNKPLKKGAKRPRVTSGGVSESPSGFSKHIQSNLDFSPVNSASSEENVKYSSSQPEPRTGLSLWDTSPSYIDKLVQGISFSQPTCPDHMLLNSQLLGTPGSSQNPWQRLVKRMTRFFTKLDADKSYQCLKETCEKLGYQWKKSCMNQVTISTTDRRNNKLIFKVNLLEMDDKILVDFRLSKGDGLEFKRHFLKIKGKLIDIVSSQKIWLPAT", "experiment": "CHK1 Enzyme Assay (phosphorylation of Chktide peptide, 33P-ATP filter assay)", "format": "biochemical", "settings": "12.5 nM His-CHK1, 0.01 mM ATP, 40 minutes at 30° C.; read-out: CHK1 Enzyme Activity (IC50 range)", "procedure,_shortened": "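His-CHK1 (12.5 nM) phosphorylating 14.8 μM Chktide with 0.01 mM ATP plus 33P-γ-ATP, in 50 mM Hepes-NaOH pH 7.5 with 0.1 mg/mL BSA. Incubated with inhibitor for 40 min at 30 °C. Stopped with phosphoric acid; phosphopeptide captured on filter and counted by scintillation.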", "units": {"IC50": "nM"}}
{"smiles": "Cc1ccc(Cn2cc(C(=O)Nc3c[nH]c(=O)c(-c4cc5cc(CN6CCN(CCO)CC6)ccc5[nH]4)c3)cn2)cc1", "note": "[Example 62, 1-(4-Methyl-benzyl)-1H-pyrazole-4-carboxylic acid (5-{5-[4-(2-hydroxy-ethyl)-piperazin-1-ylmethyl]-1H-indol-2-yl}-6-oxo-1,6-dihydro-pyridin-3-yl)-amide]", "IC50": "< 100"}
{"smiles": "CN(Cc1ccc2[nH]c(-c3cc(NC(=O)c4cnn(Cc5ccccc5)c4)c[nH]c3=O)cc2c1)C1CCCCC1", "note": "[Example 77]", "IC50": "< 100"}
{"smiles": "CCNCc1ccc2[nH]c(-c3cc(NC(=O)c4cnn(Cc5ccc(F)cc5)c4)c[nH]c3=O)cc2c1", "note": "[Example 83, 1-(4-Fluoro-benzyl)-1H-pyrazole-4-carboxylic acid [5-(5-ethylaminomethyl-1H-indol-2-yl)-6-oxo-1,6-dihydro-pyridin-3-yl]-amide]", "IC50": "< 100"}
{"smiles": "CS(=O)(=O)CCNCc1ccc2[nH]c(-c3cc(NC(=O)c4cnn(Cc5ccccc5)c4)c[nH]c3=O)cc2c1", "note": "[Example 68]", "IC50": "< 100"}
{"smiles": "O=C(Nc1c[nH]c(=O)c(-c2cc3cc(OCCCN4CCCC4=O)ccc3[nH]2)c1)c1cnn(Cc2ccccc2)c1", "note": "[Example 148, 1-Benzyl-1H-pyrazole-4-carboxylic acid (6-oxo-5-{5-[3-(2-oxo-pyrrolidin-1-yl)-propoxy]-1H-indole-2-yl}-1,6-dihydro-pyridin-3-yl)-amide]", "IC50": "< 100"}
{"smiles": "CN(C)CC1(COc2ccc3[nH]c(-c4cc(NC(=O)c5cnn(Cc6ccccc6)c5)c[nH]c4=O)cc3c2)CC1", "note": "[Example 188, 1-Benzyl-1H-pyrazole-4-carboxylic acid {5-[5-(1-dimethylaminomethyl-cyclopropylmethoxy)-1H-indol-2-yl]-6-oxo-1,6-dihydro-pyridin-3-yl}-amide]", "IC50": "< 100"}
{"smiles": "O=C(Nc1c[nH]c(=O)c(-c2cc3cc(CN4CCC(F)CC4)ccc3[nH]2)c1)c1cnn(CCc2ccc(F)cc2)c1", "note": "[Example 96, 1-[2-(4-Fluoro-phenyl)-ethyl]-1H-pyrazole-4-carboxylic acid {5-[5-(4-fluoro-piperidin-1-ylmethyl)-1H-indol-2-yl]-6-oxo-1,6-dihydro-pyridin-3-yl}-amide]", "IC50": "< 100"}
{"smiles": "CC(C)(C)c1ccc(Cn2cc(C(=O)Nc3c[nH]c(=O)c(-c4cc5cc(OCCN6CCCCC6)ccc5[nH]4)c3)cn2)cc1", "note": "[Example 151, 1-(4-tert-Butylbenzyl)-1H-pyrazole-4-carboxylic acid {5-[5-(2-piperidin-1-ylethoxy)-1H-indol-2-yl)-6-oxo-1,6-dihydropyridin-3-yl}-amide]", "IC50": "< 100"}
{"smiles": "O=C(Nc1c[nH]c(=O)c(-c2cc3c(CN4CCCCC4)cccc3[nH]2)c1)c1cnn(Cc2ccccc2)c1", "note": "[Example 108, 1-Benzyl-1H-pyrazole-4-carboxylic acid [6-oxo-5-(4-piperidin-1-ylmethyl-1H-indol-2-yl)-1,6-dihydro-pyridin-3-yl]-amide]", "IC50": "< 100"}
{"smiles": "CCc1cccc(Cn2cc(C(=O)Nc3c[nH]c(=O)c(-c4cc5cc(OCCCN(C)C)ccc5[nH]4)c3)cn2)c1", "note": "[Example 129, 1-(3-Ethyl-benzyl)-1H-pyrazole-4-carboxylic acid {5-[5-(3-dimethylamino-propoxy)-1H-indol-2-yl]-6-oxo-1,6-dihydro-pyridin-3-yl}-amide]", "IC50": "< 100"}
{"smiles": "CC1CCN(Cc2ccc3[nH]c(-c4cc(NC(=O)c5cnn(C(C)c6ccccc6)c5)c[nH]c4=O)cc3c2)CC1", "note": "(stereo not drawn) [Example 92, 1-(1-Phenyl-ethyl)-1H-pyrazole-4-carboxylic acid {5-[5-(4-methyl-piperidin-1-ylmethyl)-1H-indol-2-yl]-6-oxo-1,6-dihydro-pyridin-3-yl}-amide]", "IC50": "< 100"}
{"smiles": "C[C@@H]1CN(Cc2ccc3[nH]c(-c4cc(NC(=O)c5cnn([C@@H](C)c6ccccc6)c5)c[nH]c4=O)cc3c2)C[C@H](C)O1", "note": "[Example 163, 1-((S)-1-Phenyl-ethyl)-1H-pyrazole-4-carboxylic acid {5-[5-(cis-2,6-dimethyl-morpholin-4-ylmethyl)-1H-indol-2-yl]-6-oxo-1,6-dihydro-pyridin-3-yl}-amide]", "IC50": "< 100"}
{"smiles": "CC(c1ccccc1)n1cc(C(=O)Nc2c[nH]c(=O)c(-c3cc4ccccc4[nH]3)c2)cn1", "note": "(stereo not drawn) [Example 93, 1-(1-Phenylethyl)-1H-pyrazole-4-carboxylic acid [5-(1H-indol-2-yl)-6-oxo-1,6-dihydropyridin-3-yl]-amide]", "IC50": "< 100"}
{"smiles": "Cc1ccc(Cn2cc(C(=O)Nc3c[nH]c(=O)c(-c4cc5cc(CN6C[C@@H](C)O[C@@H](C)C6)ccc5[nH]4)c3)cn2)cc1", "note": "[Example 74, 1-(4-Methyl-benzyl)-1H-pyrazole-4-carboxylic acid {5-[5-(cis-2,6-dimethyl-morpholin-4-ylmethyl)-1H-indol-2-yl]-6-oxo-1,6-dihydro-pyridin-3-yl}-amide]", "IC50": "< 100"}
{"smiles": "C[C@@H](c1ccccc1)n1cc(C(=O)Nc2c[nH]c(=O)c(-c3cc4cc(CN5CCC(F)CC5)ccc4[nH]3)c2)cn1", "note": "[Example 164, 1-((S)-1-Phenyl-ethyl)-1H-pyrazole-4-carboxylic acid {5-[5-(4-fluoro-piperidin-1-ylmethyl)-1H-indol-2-yl]-6-oxo-1,6-dihydro-pyridin-3-yl}-amide]", "IC50": "< 100"}
{"smiles": "CC1CN(Cc2ccc3[nH]c(-c4cc(NC(=O)c5cnn(Cc6ccccc6)c5)c[nH]c4=O)cc3c2)CCN1C", "note": "(stereo not drawn) [Example 70, 1-Benzyl-1H-pyrazole-4-carboxylic acid {5-[5-(3,4-dimethyl-piperazin-1-ylmethyl)-1H-indol-2-yl]-6-oxo-1,6-dihydro-pyridin-3-yl}-amide]", "IC50": "< 100"}
{"smiles": "NCCOc1cccc2[nH]c(-c3cc(NC(=O)c4cnn(Cc5ccccc5)c4)c[nH]c3=O)cc12", "note": "[Example 158, 1-Benzyl-1H-pyrazole-4-carboxylic acid {5-[4-(2-amino-ethoxy)-1H-indol-2-yl]-6-oxo-1,6-dihydro-pyridin-3-yl}-amide]", "IC50": "< 100"}
{"smiles": "COc1ccc(Cn2cc(NC(=O)c3c[nH]c(=O)c(-c4cc5ccccc5[nH]4)c3)cn2)cc1", "note": "[Example 2, 5-(1H-Indol-2-yl)-6-oxo-1,6-dihydro-pyridine-3-carboxylic acid [1-(4-methoxy-benzyl)-1H-pyrazol-4-yl]-amide]", "IC50": "100 to 500"}
{"smiles": "Cc1ccc(Cn2cc(C(=O)Nc3c[nH]c(=O)c(-c4cc5cc(CN6CCN(C)CC6)ccc5[nH]4)c3)cn2)cc1", "note": "[Example 59, 1-(4-Methyl-benzyl)-1H-pyrazole-4-carboxylic acid {5-[5-(4-methyl-piperazin-1-ylmethyl)-1H-indol-2-yl]-6-oxo-1,6-dihydro-pyridin-3-yl}-amide]", "IC50": "< 100"}
{"smiles": "O=C(Nc1c[nH]c(=O)c(-c2cc3cc(CNCCO)ccc3[nH]2)c1)c1cnn(Cc2ccc(Cl)cc2)c1", "note": "[Example 46, 1-(4-Chloro-benzyl)-1H-pyrazole-4-carboxylic acid (5-{5-[(2-hydroxy-ethylamino)-methyl]-1H-indol-2-yl}-6-oxo-1,6-dihydro-pyridin-3-yl)-amide]", "IC50": "< 100"}
{"smiles": "O=C(Nc1c[nH]c(=O)c(-c2cc3cc(CN4CCC(O)CC4)ccc3[nH]2)c1)c1cnn(Cc2ccc(Cl)cc2)c1", "note": "[Example 48, 1-(4-Chloro-benzyl)-1H-pyrazole-4-carboxylic acid {5-[5-(4-hydroxy-piperidin-1-ylmethyl)-1H-indol-2-yl]-6-oxo-1,6-dihydro-pyridin-3-yl}-amide]", "IC50": "< 100"}
{"smiles": "Cc1ccc(Cn2cc(C(=O)Nc3c[nH]c(=O)c(-c4cc5cc(OCCN6CCOCC6)ccc5[nH]4)c3)cn2)cc1", "note": "[Example 118, 1-(4-Methyl-benzyl)-1H-pyrazole-4-carboxylic acid {5-[5-(2-morpholin-4-yl-ethoxy)-1H-indol-2-yl]-6-oxo-1,6-dihydro-pyridin-3-yl}-amide]", "IC50": "< 100"}
{"smiles": "CC(c1ccccc1)n1cc(C(=O)Nc2c[nH]c(=O)c(-c3cc4cc(CN5C[C@@H](C)O[C@@H](C)C5)ccc4[nH]3)c2)cn1", "note": "(stereo partly drawn) [Example 91, 1-(1-Phenyl-ethyl)-1H-pyrazole-4-carboxylic acid {5-[5-(cis-2,6-dimethyl-morpholin-4-ylmethyl)-1H-indol-2-yl]-6-oxo-1,6-dihydro-pyridin-3-yl}-amide]", "IC50": "< 100"}
{"smiles": "Cc1ccccc1Cn1cc(NC(=O)c2c[nH]c(=O)c(-c3cc4ccccc4[nH]3)c2)cn1", "note": "[Example 3, 5-(1H-Indol-2-yl)-6-oxo-1,6-dihydro-pyridine-3-carboxylic acid [1-(2-methyl-benzyl)-1H-pyrazol-4-yl]-amide]", "IC50": "500 to 1500"}
{"smiles": "O=C(Nc1cnn(Cc2ccc(F)cc2)c1)c1c[nH]c(=O)c(-c2cc3ccccc3[nH]2)c1", "note": "[Example 10, 5-(1H-Indol-2-yl)-6-oxo-1,6-dihydro-pyridine-3-carboxylic acid [1-(4-fluoro-benzyl)-1H-pyrazol-4-yl]-amide]", "IC50": "< 100"}
{"smiles": "CCN(CC)Cc1ccc2[nH]c(-c3cc(NC(=O)c4cnn(Cc5ccc(C)cc5)c4)c[nH]c3=O)cc2c1", "note": "[Example 75, 1-(4-Methyl-benzyl)-1H-pyrazole-4-carboxylic acid [5-(5-diethylaminomethyl-1H-indol-2-yl)-6-oxo-1,6-dihydro-pyridin-3-yl]-amide]", "IC50": "< 100"}
{"smiles": "Cc1ccc(Cn2cc(C(=O)Nc3c[nH]c(=O)c(-c4cc5cc(N6CCN(C)CC6)ccc5[nH]4)c3)cn2)cc1", "note": "[Example 112, 1-(4-Methyl-benzyl)-1H-pyrazole-4-carboxylic acid {5-[5-(4-methyl-piperazin-1-yl)-1H-indol-2-yl]-6-oxo-1,6-dihydro-pyridin-3-yl}-amide]", "IC50": "< 100"}
